From publication doi:10.1101/534982v1 (biorxiv, 2019)

Tests used:
Assay in all cases: fluorescence reverse titration
[1] = biological target: T1, ankyrin binding domain (Homo sapiens, UniProt P11277)
T1 sequence (P11277 1657-1876): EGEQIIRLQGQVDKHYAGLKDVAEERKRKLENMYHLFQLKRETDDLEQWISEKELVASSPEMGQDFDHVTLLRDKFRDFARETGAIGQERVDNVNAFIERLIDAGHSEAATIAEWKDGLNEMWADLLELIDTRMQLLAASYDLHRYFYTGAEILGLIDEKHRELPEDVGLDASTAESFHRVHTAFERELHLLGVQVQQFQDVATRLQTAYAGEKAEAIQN

[2] = biological target: actin binding domain (Homo sapiens, UniProt P11277)
Sequence of actin binding domain (P11277 1-316): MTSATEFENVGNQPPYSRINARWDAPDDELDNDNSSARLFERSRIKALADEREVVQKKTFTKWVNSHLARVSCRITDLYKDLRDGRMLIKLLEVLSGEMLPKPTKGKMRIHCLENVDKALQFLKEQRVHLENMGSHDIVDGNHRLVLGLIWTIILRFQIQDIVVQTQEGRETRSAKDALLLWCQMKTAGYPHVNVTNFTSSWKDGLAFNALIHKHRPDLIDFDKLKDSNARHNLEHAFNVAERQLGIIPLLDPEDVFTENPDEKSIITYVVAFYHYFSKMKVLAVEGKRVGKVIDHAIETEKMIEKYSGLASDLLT

[3] = biological target: T2, α-tetramerization domain (Homo sapiens, UniProt P02549); format: binding
T2 sequence (P02549 1-158): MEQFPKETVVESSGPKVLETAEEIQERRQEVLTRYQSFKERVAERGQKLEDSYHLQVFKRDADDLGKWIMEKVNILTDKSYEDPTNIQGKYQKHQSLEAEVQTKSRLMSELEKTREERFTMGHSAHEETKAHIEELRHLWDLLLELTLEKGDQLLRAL

[4] = biological target: T3, SH3 domain (Homo sapiens, UniProt P02549); format: binding
T3 sequence (P02549 973-1055): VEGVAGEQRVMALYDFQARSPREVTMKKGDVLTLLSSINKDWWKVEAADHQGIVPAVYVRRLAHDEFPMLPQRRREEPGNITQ

[5] = biological target: T4, spectrin repeat domain (Homo sapiens, UniProt P02549); format: binding
T4 sequence (P02549 1470-1576): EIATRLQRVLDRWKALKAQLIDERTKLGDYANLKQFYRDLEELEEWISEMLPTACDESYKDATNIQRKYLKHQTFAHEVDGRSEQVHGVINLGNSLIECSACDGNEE

[6] = biological target: T5, β-tetramerization domain (Homo sapiens, UniProt P11277); format: binding
T5 sequence (P11277 1895-2137): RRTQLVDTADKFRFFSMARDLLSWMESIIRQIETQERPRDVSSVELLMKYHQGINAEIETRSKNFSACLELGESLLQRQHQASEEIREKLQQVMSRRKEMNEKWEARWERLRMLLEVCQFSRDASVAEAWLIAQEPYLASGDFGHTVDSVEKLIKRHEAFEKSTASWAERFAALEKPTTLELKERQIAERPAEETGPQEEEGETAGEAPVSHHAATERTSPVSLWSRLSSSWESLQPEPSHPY

[7] = biological target: Spectrin (dimeric human erythroid spectrin) (Homo sapiens, UniProt P02549+P11277); format: binding
Sequence of Spectrin (dimeric human erythroid spectrin) (P02549 whole entry, the tested form may be a part): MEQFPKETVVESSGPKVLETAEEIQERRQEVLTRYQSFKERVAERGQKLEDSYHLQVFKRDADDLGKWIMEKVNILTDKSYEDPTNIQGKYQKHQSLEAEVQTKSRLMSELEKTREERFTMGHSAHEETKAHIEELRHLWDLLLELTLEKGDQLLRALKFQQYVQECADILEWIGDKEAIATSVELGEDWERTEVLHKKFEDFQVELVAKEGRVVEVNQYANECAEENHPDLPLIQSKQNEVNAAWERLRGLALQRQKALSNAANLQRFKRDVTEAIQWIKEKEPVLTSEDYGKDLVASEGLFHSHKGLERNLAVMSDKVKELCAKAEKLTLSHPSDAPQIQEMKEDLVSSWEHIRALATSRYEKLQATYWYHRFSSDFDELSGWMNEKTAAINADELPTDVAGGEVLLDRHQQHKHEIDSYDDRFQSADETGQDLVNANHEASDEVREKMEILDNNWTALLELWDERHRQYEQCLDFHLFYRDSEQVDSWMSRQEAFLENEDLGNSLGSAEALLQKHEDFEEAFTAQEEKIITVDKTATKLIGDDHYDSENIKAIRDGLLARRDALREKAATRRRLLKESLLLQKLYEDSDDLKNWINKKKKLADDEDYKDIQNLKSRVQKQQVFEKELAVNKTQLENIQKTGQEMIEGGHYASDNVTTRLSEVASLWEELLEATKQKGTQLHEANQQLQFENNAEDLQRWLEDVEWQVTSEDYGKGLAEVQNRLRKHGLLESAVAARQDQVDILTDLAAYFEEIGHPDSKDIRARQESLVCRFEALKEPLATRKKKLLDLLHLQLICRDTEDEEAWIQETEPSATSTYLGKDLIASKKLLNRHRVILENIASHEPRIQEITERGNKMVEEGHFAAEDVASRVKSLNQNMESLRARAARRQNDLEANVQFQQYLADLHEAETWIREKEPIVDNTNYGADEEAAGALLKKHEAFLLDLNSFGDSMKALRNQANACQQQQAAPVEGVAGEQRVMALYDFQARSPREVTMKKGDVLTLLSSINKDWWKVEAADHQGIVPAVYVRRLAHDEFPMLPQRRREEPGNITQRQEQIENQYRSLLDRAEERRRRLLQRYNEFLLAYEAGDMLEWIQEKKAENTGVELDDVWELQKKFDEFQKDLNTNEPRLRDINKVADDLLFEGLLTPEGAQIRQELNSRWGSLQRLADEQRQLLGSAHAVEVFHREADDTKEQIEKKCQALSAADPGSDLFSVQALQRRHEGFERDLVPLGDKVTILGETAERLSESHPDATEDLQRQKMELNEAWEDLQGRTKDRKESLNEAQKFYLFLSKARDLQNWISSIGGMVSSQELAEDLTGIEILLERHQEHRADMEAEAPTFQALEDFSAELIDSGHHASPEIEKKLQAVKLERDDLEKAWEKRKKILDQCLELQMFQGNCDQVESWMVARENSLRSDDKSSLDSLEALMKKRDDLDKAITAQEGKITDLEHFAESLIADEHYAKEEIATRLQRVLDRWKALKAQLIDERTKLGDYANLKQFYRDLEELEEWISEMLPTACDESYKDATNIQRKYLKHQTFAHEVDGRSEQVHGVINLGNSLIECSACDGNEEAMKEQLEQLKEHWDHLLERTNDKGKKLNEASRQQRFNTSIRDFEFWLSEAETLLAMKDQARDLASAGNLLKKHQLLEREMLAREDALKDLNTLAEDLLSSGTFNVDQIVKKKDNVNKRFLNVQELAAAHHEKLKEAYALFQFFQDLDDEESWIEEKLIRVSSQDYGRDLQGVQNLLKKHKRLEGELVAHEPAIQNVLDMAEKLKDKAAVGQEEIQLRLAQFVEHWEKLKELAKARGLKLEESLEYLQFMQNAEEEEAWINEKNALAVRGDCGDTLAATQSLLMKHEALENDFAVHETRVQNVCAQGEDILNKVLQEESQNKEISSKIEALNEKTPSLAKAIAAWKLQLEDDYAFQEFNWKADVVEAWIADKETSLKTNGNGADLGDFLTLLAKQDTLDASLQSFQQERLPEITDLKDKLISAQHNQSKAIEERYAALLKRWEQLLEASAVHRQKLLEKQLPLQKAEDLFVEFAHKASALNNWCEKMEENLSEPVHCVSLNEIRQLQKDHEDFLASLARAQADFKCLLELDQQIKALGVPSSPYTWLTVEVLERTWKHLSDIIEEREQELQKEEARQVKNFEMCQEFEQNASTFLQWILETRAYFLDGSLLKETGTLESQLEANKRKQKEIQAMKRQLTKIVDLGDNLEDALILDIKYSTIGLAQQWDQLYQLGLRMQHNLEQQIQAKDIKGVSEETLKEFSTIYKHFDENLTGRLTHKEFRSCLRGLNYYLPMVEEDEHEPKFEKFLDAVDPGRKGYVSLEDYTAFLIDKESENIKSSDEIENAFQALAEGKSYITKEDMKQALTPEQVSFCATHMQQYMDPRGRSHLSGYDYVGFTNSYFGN
Sequence of Spectrin (dimeric human erythroid spectrin) (P11277 2-2137): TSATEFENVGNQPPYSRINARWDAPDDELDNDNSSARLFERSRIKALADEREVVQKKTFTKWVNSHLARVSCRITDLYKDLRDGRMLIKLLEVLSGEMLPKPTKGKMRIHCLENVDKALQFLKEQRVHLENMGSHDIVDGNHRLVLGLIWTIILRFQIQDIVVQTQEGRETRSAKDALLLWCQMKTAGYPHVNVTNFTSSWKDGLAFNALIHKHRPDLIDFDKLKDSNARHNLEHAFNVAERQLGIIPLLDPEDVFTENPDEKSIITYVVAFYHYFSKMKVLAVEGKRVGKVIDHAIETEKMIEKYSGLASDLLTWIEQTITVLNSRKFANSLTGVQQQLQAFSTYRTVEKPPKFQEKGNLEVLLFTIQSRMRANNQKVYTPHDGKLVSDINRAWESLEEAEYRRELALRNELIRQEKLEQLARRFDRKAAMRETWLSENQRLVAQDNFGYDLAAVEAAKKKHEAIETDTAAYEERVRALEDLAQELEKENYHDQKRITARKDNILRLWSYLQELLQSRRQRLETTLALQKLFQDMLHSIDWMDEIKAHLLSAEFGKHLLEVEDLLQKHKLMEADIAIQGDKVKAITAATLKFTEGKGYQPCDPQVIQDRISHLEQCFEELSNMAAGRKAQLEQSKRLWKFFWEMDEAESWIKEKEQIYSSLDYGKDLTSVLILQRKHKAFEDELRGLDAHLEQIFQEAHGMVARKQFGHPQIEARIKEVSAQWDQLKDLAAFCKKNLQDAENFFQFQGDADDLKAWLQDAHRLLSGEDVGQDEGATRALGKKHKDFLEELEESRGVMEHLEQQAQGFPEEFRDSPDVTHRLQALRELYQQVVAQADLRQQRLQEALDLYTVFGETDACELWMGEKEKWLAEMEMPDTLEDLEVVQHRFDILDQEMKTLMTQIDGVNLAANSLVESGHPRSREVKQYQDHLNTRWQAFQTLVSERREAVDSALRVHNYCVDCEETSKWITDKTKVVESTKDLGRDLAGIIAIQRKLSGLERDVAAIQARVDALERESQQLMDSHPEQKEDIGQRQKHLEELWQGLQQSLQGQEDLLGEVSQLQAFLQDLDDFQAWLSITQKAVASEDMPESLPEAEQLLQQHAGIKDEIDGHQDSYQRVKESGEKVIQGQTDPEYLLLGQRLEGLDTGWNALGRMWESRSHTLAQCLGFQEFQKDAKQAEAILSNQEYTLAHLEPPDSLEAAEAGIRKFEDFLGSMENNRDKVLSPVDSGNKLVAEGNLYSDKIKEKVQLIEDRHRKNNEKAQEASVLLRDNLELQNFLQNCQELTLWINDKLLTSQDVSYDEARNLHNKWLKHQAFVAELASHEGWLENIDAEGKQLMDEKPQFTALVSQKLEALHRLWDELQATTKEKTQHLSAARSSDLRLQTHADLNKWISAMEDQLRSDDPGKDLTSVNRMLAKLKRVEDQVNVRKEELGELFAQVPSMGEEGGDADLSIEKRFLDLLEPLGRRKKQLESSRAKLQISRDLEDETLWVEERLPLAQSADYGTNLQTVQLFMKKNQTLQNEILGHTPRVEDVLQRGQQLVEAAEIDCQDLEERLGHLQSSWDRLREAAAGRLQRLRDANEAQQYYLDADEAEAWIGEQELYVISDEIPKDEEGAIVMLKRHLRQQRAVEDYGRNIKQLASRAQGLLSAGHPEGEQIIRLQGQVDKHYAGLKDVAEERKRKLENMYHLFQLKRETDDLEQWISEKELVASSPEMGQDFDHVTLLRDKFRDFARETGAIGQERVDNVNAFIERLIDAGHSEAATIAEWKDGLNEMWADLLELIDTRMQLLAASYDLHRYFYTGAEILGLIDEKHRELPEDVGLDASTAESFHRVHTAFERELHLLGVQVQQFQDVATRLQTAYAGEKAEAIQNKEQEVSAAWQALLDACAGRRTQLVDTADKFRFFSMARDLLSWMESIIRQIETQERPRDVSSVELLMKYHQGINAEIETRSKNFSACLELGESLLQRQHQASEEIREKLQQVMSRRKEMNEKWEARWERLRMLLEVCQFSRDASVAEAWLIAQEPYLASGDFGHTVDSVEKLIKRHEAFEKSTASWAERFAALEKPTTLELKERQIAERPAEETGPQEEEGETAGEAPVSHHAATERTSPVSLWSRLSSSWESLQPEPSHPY

[8] = biological target: T6, Self-association domain (reconstituted) (Homo sapiens, UniProt P02549+P11277); format: binding
T6 sequence (P02549 1-158): T2 sequence (P02549 1-158)
T6 sequence (P11277 1895-2137): T5 sequence (P11277 1895-2137)

[9] = biological target: β-dimerization domain (Homo sapiens, UniProt P11277); format: binding
Sequence of β-dimerization domain (P11277 271-500): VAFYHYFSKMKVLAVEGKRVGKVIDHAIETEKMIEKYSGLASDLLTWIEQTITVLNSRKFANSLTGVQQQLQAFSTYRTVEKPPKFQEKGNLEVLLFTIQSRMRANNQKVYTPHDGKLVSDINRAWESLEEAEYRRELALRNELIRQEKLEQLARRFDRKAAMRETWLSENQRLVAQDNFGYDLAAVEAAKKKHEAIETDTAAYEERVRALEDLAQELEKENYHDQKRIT

[10] = biological target: T7, α-dimerization domain (Homo sapiens, UniProt P02549); format: binding
T7 sequence (P02549 2002-2233): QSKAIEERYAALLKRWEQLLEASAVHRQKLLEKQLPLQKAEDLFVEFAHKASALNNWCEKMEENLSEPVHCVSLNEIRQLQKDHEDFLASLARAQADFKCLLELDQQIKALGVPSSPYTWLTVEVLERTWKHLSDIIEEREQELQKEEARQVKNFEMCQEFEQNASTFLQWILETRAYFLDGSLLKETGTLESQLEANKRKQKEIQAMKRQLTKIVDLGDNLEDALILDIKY

- Kd [1]: 40 ± 2.8 µM
- Kd [2]: 64.3 ± 3.9 µM
- Kd [3]: 45.4 ± 3.1 µM
- Kd [4]: 64 ± 2.7 µM
- Kd [5]: 47.7 ± 2.9 µM
- Kd [6]: 48.2 ± 3.3 µM
- Kd [7]: 30.1 ± 2 µM
- Kd [8]: 38.9 ± 2.3 µM
- Kd [9]: 37.2 ± 3.1 µM
- Kd [10]: 51.5 ± 3.2 µM
SMILES: O=S(=O)(O)c1cccc2cccc(Nc3ccccc3)c12 [ANS, 1-anilinonaphthalene-8-sulfonic acid]
